Laboratory results from patent US20250313563A1, “GLYCOGEN SYNTHASE KINASE 3 INHIBITORS AND USES THEREOF” (The Broad Institute, Inc., priority 2022, published 2025).
Like-named read-outs stand apart in the source and are kept apart here.

Legend:
[1] = target: GSK3b (GST-full length GSK3b) (Homo sapiens (Human), UniProt P49841); assay: GSK3b TR-FRET kinase assay; assay type: biochemical
Outline: (§1)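 1 nM GST-GSK3α/β + cpd, 30 min preinc; add 200 nM biotin-pS645 GS(631-650) peptide + ATP (α 4 μM / β 2 μM, or 1 mM); 100 min RT, 50 mM Tris pH 7.5, 20 mM MgCl2, 1% DMSO; EDTA stop; SA-d2/Tb-pSer641 Ab 60 min; 665/615 ratio → IC50.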

[2] = target: GSK3α (GST-full length GSK3α) (Homo sapiens (Human), UniProt P49840); assay: GSK3α TR-FRET kinase assay; assay type: biochemical
Sequence of GSK3α (GST-full length GSK3α) (P49840 whole entry): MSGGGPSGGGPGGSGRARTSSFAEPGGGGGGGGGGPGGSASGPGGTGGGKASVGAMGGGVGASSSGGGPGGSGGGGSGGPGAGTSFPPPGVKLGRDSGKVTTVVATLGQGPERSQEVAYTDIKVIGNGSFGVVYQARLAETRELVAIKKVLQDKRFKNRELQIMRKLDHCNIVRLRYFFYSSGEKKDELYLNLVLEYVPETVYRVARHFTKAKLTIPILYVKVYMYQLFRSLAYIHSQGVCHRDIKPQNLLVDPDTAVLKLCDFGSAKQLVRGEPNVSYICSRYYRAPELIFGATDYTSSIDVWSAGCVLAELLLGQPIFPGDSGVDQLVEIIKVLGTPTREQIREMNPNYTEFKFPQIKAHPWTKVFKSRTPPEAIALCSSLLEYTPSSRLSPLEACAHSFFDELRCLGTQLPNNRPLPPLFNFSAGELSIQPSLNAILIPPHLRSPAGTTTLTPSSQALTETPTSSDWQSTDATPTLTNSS
Outline: as §1

[3] = 1 nM GSK3b, 2 μM ATP, 30 minute preincubation, read-out: GSK3-B TR-FRET BIOCHEMICAL (TR-FRET), IC50
[4] = 1 nM GSK3α, 4 μM ATP, 30 minute preincubation, read-out: GSK3-A TR-FRET BIOCHEMICAL (TR-FRET), IC50
[5] = read-out: GSK3-B (TR-FRET 1 mM ATP), GMean, IC50, 1 mM ATP, geometric mean
[6] = read-out: GSK3-A (TR-FRET 1 mM ATP), GMean, IC50, 1 mM ATP, geometric mean
[7] = 1 nM GSK3b, 2 μM ATP, 30 minute preincubation, Table 16, read-out: GSK3-B TR-FRET BIOCHEMICAL (TR-FRET)
[8] = 1 nM GSK3α, 4 μM ATP, 30 minute preincubation, Table 16, read-out: GSK3-A TR-FRET BIOCHEMICAL (TR-FRET)

Sequence of GSK3b (GST-full length GSK3b) (P49841 whole entry): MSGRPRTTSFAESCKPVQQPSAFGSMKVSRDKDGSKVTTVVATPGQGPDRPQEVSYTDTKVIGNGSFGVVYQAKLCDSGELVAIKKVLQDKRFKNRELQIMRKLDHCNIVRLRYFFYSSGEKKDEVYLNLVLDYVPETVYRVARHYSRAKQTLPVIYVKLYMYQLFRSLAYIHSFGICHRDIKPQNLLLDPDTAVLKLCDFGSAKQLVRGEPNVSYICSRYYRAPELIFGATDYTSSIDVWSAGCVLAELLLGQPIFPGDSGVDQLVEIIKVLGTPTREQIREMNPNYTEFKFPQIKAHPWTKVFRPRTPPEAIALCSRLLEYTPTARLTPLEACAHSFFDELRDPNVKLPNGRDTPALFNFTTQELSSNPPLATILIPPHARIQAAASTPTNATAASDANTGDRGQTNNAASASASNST

Row | IC50 [1, 3] | IC50 [2, 4] | IC50 [1, 5] | IC50 [2, 6] | IC50 [1, 7] | IC50 [2, 8] | Compound
1 | ≤ 100 nM | ≤ 100 nM | – | – | – | – | Cc1cc(C)cc(C(=O)N2CC3(C2)CC2(CO3)C3=C(CC(C)(C)CC3=O)Nc3n[nH]cc32)c1 (stereo not drawn) [Compound 947296]
2 | ≤ 100 nM | ≤ 100 nM | – | – | – | – | CC1(C)CC(=O)C2=C(C1)Nc1n[nH]cc1C21COC2(CN(C(=O)C3CC3)C2)C1 (stereo not drawn) [Compound 947297]
3 | ≤ 100 nM | ≤ 100 nM | – | – | – | – | CC1(C)CC(=O)C2=C(C1)Nc1n[nH]cc1C21COC2(CN(C(=O)CC3CC3)C2)C1 (stereo not drawn) [Compound 947298]
4 | ≤ 100 nM | ≤ 100 nM | – | – | – | – | CC1(C)CC(=O)C2=C(C1)Nc1n[nH]cc1C21COC2(CN(C(=O)CC3CCC3)C2)C1 (stereo not drawn) [Compound 947299]
5 | ≤ 100 nM | ≤ 100 nM | – | – | – | – | CCCC(=O)N1CC2(C1)CC1(CO2)C2=C(CC(C)(C)CC2=O)Nc2n[nH]cc21 (stereo not drawn) [Compound 947300]
6 | 1000 to 5000 nM | 100 to 1000 nM | – | – | – | – | CC(C)(C)CC(=O)N1CC2(C1)CC1(CO2)C2=C(CC(C)(C)CC2=O)Nc2n[nH]cc21 (stereo not drawn) [Compound 947301]
7 | ≤ 100 nM | ≤ 100 nM | – | – | – | – | CC(C)CC(=O)N1CC2(C1)CC1(CO2)C2=C(CC(C)(C)CC2=O)Nc2n[nH]cc21 (stereo not drawn) [Compound 947302]
8 | ≤ 100 nM | ≤ 100 nM | – | – | – | – | CC1(C)CC(=O)C2=C(C1)Nc1n[nH]cc1C21COC2(CN(C(=O)C(C)(C)C)C2)C1 (stereo not drawn) [Compound 947303]
9 | 100 to 1000 nM | ≤ 100 nM | – | – | – | – | CC(C)C(=O)N1CC2(C1)CC1(CO2)C2=C(CC(C)(C)CC2=O)Nc2n[nH]cc21 (stereo not drawn) [Compound 947304]
10 | ≤ 100 nM | ≤ 100 nM | – | – | – | – | CC1(C)CC(=O)C2=C(C1)Nc1n[nH]cc1C21COC2(CN(C(=O)CC3CCCCC3)C2)C1 (stereo not drawn) [Compound 947305]
11 | ≤ 100 nM | ≤ 100 nM | ≤ 100 nM | ≤ 100 nM | – | – | CC1(C)CC(=O)C2=C(C1)Nc1n[nH]cc1C21COC2(CN(C(=O)Cc3ccccc3)C2)C1 (stereo not drawn) [Compound 947306]
12 | ≤ 100 nM | ≤ 100 nM | – | – | – | – | CC1(C)CC(=O)C2=C(C1)Nc1n[nH]cc1C21COC2(CN(C(=O)C3(C)CCCC3)C2)C1 (stereo not drawn) [Compound 947307]
13 | 100 to 1000 nM | ≤ 100 nM | – | – | – | – | CC1(C)CC(=O)C2=C(C1)Nc1n[nH]cc1C21COC2(CN(C(=O)C3CCCCCC3)C2)C1 (stereo not drawn) [Compound 947308]
14 | – | – | ≤ 100 nM | ≤ 100 nM | ≤ 100 nM | ≤ 100 nM | CC[C@]1(c2cccc(-c3ccncc3C)c2)C2=C(CC(C)(C)CC2=O)Nc2n[nH]c(C(F)(F)F)c21 [Compound 947324]
15 | – | – | ≤ 100 nM | ≤ 100 nM | ≤ 100 nM | ≤ 100 nM | CC[C@]1(c2cccc(-c3ccncc3F)c2)C2=C(CC(C)(C)CC2=O)Nc2n[nH]c(C(F)(F)F)c21 [Compound 947326]
16 | – | – | – | – | 100 to 1000 nM | 100 to 1000 nM | CCC1(c2cccc(-c3ccnc(C)c3C)c2)C2=C(CC(C)(C)CC2=O)Nc2n[nH]c(C(F)(F)F)c21 (stereo not drawn) [Compound 947328]
17 | – | – | ≤ 100 nM | ≤ 100 nM | ≤ 100 nM | ≤ 100 nM | CCC1(c2cccc(-c3ccnc(C)c3C)c2)C2=C(CC(C)(C)CC2=O)Nc2n[nH]c(C(F)(F)F)c21 (stereo not drawn) [Compound 947329]
18 | 100 to 1000 nM | ≤ 100 nM | – | – | – | – | CCC1(c2cccc(C(F)(F)F)c2)C2=C(CCN(c3ccc(OC)cc3)C2=O)Nc2n[nH]cc21 (stereo not drawn) [Compound 947332]
19 | – | – | 100 to 1000 nM | ≤ 100 nM | ≤ 100 nM | ≤ 100 nM | CCN(c1cccc(C2(CC)C3=C(CC(C)(C)CC3=O)Nc3n[nH]cc32)c1)c1ncccn1 (stereo not drawn) [Compound 947333]
20 | – | – | – | – | 1000 to 5000 nM | 100 to 1000 nM | CCN(c1cccc([C@@]2(CC)C3=C(CC(C)(C)CC3=O)Nc3n[nH]cc32)c1)c1ncccn1 [Compound 947334]
21 | – | – | 100 to 1000 nM | ≤ 100 nM | ≤ 100 nM | ≤ 100 nM | CCC1(c2cccc(-c3cc(C)ncc3C)c2)C2=C(CC(C)(C)CC2=O)Nc2n[nH]c(C(F)(F)F)c21 (stereo not drawn) [Compound 947363]
22 | – | – | – | – | 1000 to 5000 nM | 100 to 1000 nM | CCC1(c2cccc(-c3ccnn3C)c2)C2=C(CC(C)(C)CC2=O)Nc2n[nH]c(C(F)(F)F)c21 (stereo not drawn) [Compound 947365]
23 | – | – | ≤ 100 nM | ≤ 100 nM | ≤ 100 nM | ≤ 100 nM | CC[C@@]1(c2cccc(-c3ccnn3C)c2)C2=C(CC(C)(C)CC2=O)Nc2n[nH]c(C(F)(F)F)c21 [Compound 947372]
24 | – | – | – | – | > 5000 nM | 1000 to 5000 nM | CC[C@]1(c2cccc(-c3cc(C)nn3C)c2)C2=C(CC(C)(C)CC2=O)Nc2n[nH]c(C(F)(F)F)c21 [Compound 947383]
25 | ≤ 100 nM | ≤ 100 nM | 100 to 1000 nM | 100 to 1000 nM | – | – | CCC1(c2cccc(S(C)(=O)=O)c2)C2=C(CC(C)(C)NC2=O)Nc2n[nH]c(C)c21 (stereo not drawn) [Compound 947395]
